According to ChEMBL document CHEMBL1130277, “Three-dimensional quantitative structure-activity relationships from molecular similarity matrices and genetic neural networks. 2. Applications” (J Med Chem, 1997):

system: Leishmania amazonensis; test: Inhibition on leishmania mexicana amazonensis.; assay type: functional, organism-based

SMILES	IC50 [µM]
COc1cc(C2=NCCN2)ccc1OCCCCCOc1ccc(C2=NCCN2)cc1OC	4040
COc1cc(C2=NCCN2)ccc1OCCCCOc1ccc(C2=NCCN2)cc1OC	6410
c1cc(C2=NCCN2)ccc1OCCCCOc1ccc(C2=NCCN2)cc1	2710
N=C(N)c1ccc(NCCCCCNc2ccc(C(=N)N)cc2N)c(N)c1	1160
N=C(N)c1ccc(OCCCCOc2ccc(C(=N)N)cc2Cl)c(Cl)c1	1330
N=C(N)c1ccc(NCCCNc2ccc(C(=N)N)cc2[N+](=O)[O-])c([N+](=O)[O-])c1	4830
N=C(N)c1ccc(OCCCCCOc2ccc(C(=N)N)cc2Cl)c(Cl)c1	703
N=C(N)c1ccc(OCCCOc2ccc(C(=N)N)cc2N)c(N)c1	3500
N=C(N)c1ccc(NCCCNc2ccc(C(=N)N)cc2)cc1	687
N=C(N)c1ccc(OCCCCCOc2ccc(C(=N)N)cc2[N+](=O)[O-])c([N+](=O)[O-])c1	2000
COc1cc(C(=N)N)ccc1OCCCOc1ccc(C(=N)N)cc1OC	1790
N=C(N)c1ccc(OCCCCCOc2ccc(C(=N)N)cc2Br)c(Br)c1	678
N=C(N)c1ccc(NCCNc2ccc(C(=N)N)cc2N)c(N)c1	26200
N=C(N)c1cccc(OCCCCOc2cccc(C(=N)N)c2)c1	5430
N=C(N)c1cccc(OCCCCCOc2cccc(C(=N)N)c2)c1	2130
N=C(N)c1ccc(NCCCCCNc2ccc(C(=N)N)cc2[N+](=O)[O-])c([N+](=O)[O-])c1	1130
N=C(N)c1ccc(NCCCCNc2ccc(C(=N)N)cc2N)c(N)c1	7870
N=C(N)c1ccc(NCCCCNc2ccc(C(=N)N)cc2)cc1	671
N=C(N)c1ccc(OCCOc2ccc(C(=N)N)cc2[N+](=O)[O-])c([N+](=O)[O-])c1	50000
N=C(N)c1ccc(OCCCCOc2ccc(C(=N)N)cc2[N+](=O)[O-])c([N+](=O)[O-])c1	5600
c1cc(C2=NCCN2)ccc1OCCCOc1ccc(C2=NCCN2)cc1	1770
N=C(N)c1ccc(OCCCCCCOc2ccc(C(=N)N)cc2)cc1 [HEXAMIDINE]	396
N=C(N)c1ccc(OCCCCCOc2ccc(C(=N)N)cc2)cc1 [PENTAMIDINE]	820
N=C(N)c1ccc(OCCCOc2ccc(C(=N)N)cc2)cc1 [PROPAMIDINE]	851

Next, values leading:

IC50 [µM]	SMILES
2260	COc1cc(C2=NCCN2)ccc1OCCCOc1ccc(C2=NCCN2)cc1OC
289	N=C(N)c1ccc(NCCCCCCNc2ccc(C(=N)N)cc2)cc1
3030	COc1cc(C(=N)N)ccc1OCCCCCOc1ccc(C(=N)N)cc1OC
991	N=C(N)c1ccc(NCCCCCCNc2ccc(C(=N)N)cc2N)c(N)c1
7570	N=C(N)c1ccc(OCCCCOc2ccc(C(=N)N)cc2N)c(N)c1
1720	c1cc(C2=NCCN2)ccc1OCCCCCOc1ccc(C2=NCCN2)cc1
15800	N=C(N)c1ccc(OCCOc2ccc(C(=N)N)cc2)cc1
558	N=C(N)c1ccc(NCCCCCNc2ccc(C(=N)N)cc2)cc1
1040	N=C(N)c1cccc(OCCCCCCOc2cccc(C(=N)N)c2)c1
1590	N=C(N)c1ccc(OCCCCOc2ccc(C(=N)N)cc2)cc1
6100	N=C(N)c1cccc(OCCCOc2cccc(C(=N)N)c2)c1
10000	COc1cc(C(=N)N)ccc1OCCCCOc1ccc(C(=N)N)cc1OC
22600	N=C(N)c1ccc(OCCOc2ccc(C(=N)N)cc2N)c(N)c1

target: GABA-A receptor; anion channel
Description: Inhibition on Benzodiazepine receptor

SMILES	pIC50
Clc1cccc2[nH]c3c4c5ccccc5nc-4c[nH]c3c12	6.15
COc1cc2c(cn1)[nH]c1ccccc12	6.91
CCCCc1cc2c(cn1)[nH]c1ccccc12	6.64
O=[N+]([O-])c1cc2c3ccccc3nc-2c[nH]1	6.9
Cc1ccc2c(c1)[nH]c1c3c4ccccc4nc-3c[nH]c12	8.1
CCOC(=O)c1cc2c(cn1)Cc1ccccc1-2	6.17
COc1cccc2[nH]c3c4c5ccccc5nc-4c[nH]c3c12	6.6
CC(C)CCOc1cc2c3ccccc3nc-2c[nH]1	6.37
COC(=O)c1cc2c(cn1)[nH]c1ccccc12 [BETA-CCM]	8.3
O=C1C2C=Nc3ccccc3C2=NN1c1ccccc1 (stereo not given) [CGS-8216]	9.4
Cc1nccc2c1[nH]c1ccccc12 [HARMAN]	4.91
c1ccc2c(c1)[nH]c1cnccc12 [NORHARMANE]	5.79

More lines, now with the values ahead:

pIC50	SMILES
7.02	CC(C)(C)COc1cc2c3ccccc3nc-2c[nH]1
5.93	Cn1c2ccccc2c2c3[nH]c4ccccc4c3ncc21
6.65	Cc1ccc2[nH]c3c4c5ccccc5nc-4c[nH]c3c2c1
6.29	CC(C)Oc1cc2c(cn1)[nH]c1ccccc12
7.01	CCCCOc1cc2c(cn1)[nH]c1ccccc12
7.62	CCOc1cc2c(cn1)[nH]c1ccccc12
7.96	CCCOc1cc2c(cn1)[nH]c1ccccc12
5.62	CCOC(=O)c1cc2c(cn1)nc(O)c1ccccc12
6.12	CC(C)(C)COC(=O)c1cc2c3ccccc3nc-2c[nH]1
5.16	Cc1cccc2[nH]c3c4c5ccccc5nc-4c[nH]c3c12
9.22	O=C1C2C=Nc3ccccc3C2=NN1c1ccc(Cl)cc1 (stereo not given) [CGS-9896]
